Results reported in US11260049B2, “TRPV4 antagonists” (GlaxoSmithKline Intellectual Property (No. 2) Limited, priority 2016, dated 2022).
pIC50: −log10 of the molar value. Structures can show the parent of a compound that is named as a salt.

Target: human TRPV4 (Homo sapiens (Human), UniProt Q9HBA0)
Assay: FLIPR assay for hTRPV4 expressed in BHK cells
Type: cell-based
Conditions: inhibition of Agonist Compound (EC80)-induced calcium signal; BHK/AC9 cells expressing human TRPV4; read-out: IC50
How it was run: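 BHK/AC9 cells transduced with BacMam human TRPV4 (MOI 78), 15,000 cells/well, cultured 24 h at 37 °C. Loaded with 2 μM Fluo-4 AM and 500 μM Brilliant Black in HBSS for 1–1.5 h at room temperature in the dark. Intracellular calcium influx monitored by fluorescence.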

human TRPV4, sequence (Q9HBA0 whole entry): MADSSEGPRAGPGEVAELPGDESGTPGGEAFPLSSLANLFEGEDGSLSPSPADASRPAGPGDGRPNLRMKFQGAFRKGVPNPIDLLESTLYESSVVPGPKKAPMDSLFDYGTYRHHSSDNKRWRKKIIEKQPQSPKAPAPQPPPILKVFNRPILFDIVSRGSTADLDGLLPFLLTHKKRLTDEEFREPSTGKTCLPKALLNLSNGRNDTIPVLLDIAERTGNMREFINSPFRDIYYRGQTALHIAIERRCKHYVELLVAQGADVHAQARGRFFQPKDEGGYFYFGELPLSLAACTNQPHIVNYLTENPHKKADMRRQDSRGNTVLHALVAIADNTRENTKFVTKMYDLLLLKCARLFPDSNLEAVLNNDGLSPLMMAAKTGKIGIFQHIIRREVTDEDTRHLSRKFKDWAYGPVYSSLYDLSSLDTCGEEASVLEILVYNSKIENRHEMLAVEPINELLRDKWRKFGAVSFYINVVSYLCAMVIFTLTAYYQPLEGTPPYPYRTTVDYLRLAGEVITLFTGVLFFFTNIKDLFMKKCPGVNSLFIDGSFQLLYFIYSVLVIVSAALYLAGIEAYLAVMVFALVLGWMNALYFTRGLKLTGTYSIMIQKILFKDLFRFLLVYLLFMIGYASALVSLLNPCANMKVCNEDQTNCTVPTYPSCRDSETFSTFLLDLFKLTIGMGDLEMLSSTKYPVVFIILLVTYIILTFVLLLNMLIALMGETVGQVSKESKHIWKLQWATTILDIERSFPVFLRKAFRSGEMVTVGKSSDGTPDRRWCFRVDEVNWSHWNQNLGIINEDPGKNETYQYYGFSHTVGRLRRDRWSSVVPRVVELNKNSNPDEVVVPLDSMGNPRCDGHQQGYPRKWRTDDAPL

| SMILES | pIC50 |
| --- | --- |
| CNC[C@]1(O)CN(S(=O)(=O)c2ccc(C#N)cc2Cl)C[C@@H]1S(=O)(=O)c1ccc(Cl)cc1 [Example 124, 3-chloro-4-(((3S,4S)-4-((4-chlorophenyl)sulfonyl)-3-hydroxy-3-((methylamino)methyl)pyrrolidin-1-yl)sulfonyl)benzonitrile] | 8.00 to 10.00 |
| N#Cc1ccc(S(=O)(=O)N2C[C@H](S(=O)(=O)c3ccc(Cl)cn3)[C@@](O)(CN)C2)c(Cl)c1 [Example 125, 4-(((3R,4S)-3-(aminomethyl)-4-((5-chloropyridin-2-yl)sulfonyl)-3-hydroxypyrrolidin-1-yl)sulfonyl)-3-chlorobenzonitrile] | 8.00 to 10.00 |
| N#Cc1ccc(S(=O)(=O)N2C[C@H](S(=O)(=O)c3ccc(Cl)cc3)[C@](O)(CN)C2)cc1 [Example 126, 4-(((3S,4S)-3-(aminomethyl)-4-((4-chlorophenyl)sulfonyl)-3-hydroxypyrrolidin-1-yl)sulfonyl)benzonitrile] | 7.00 to 8.00 |
| N#Cc1ccc(S(=O)(=O)N2C[C@H](S(=O)(=O)c3ccc(Cl)cc3)[C@@](O)(CN)C2)cc1 [Example 127, 4-(((3R,4S)-3-(aminomethyl)-4-((4-chlorophenyl)sulfonyl)-3-hydroxypyrrolidin-1-yl)sulfonyl)benzonitrile] | 7.00 to 8.00 |
| N#Cc1ccc(S(=O)(=O)N2C[C@H](S(=O)(=O)c3ccc(Cl)cc3)[C@@](O)(CNCC(F)(F)F)C2)c(Cl)c1 [Example 128, 3-chloro-4-(((3R,4S)-4-((4-chlorophenyl)sulfonyl)-3-hydroxy-3-(((2,2,2-trifluoroethyl)amino)methyl)pyrrolidin-1-yl)sulfonyl)benzonitrile] | 7.00 to 8.00 |
| N#Cc1ccc(S(=O)(=O)N2C[C@H](S(=O)(=O)c3ccc(Cl)cn3)[C@@]3(CNCCO3)C2)c(Cl)c1 [Example 129, 3-chloro-4-(((4S,5R)-4-((5-chloropyridin-2-yl)sulfonyl)-6-oxa-2,9-diazaspiro[4.5]decan-2-yl)sulfonyl)benzonitrile, Hydrochloride] | 7.00 to 8.00 |
